Laboratory results as given in patent publication US6015925A, “Antifungal agents” (Pola Chemical Industries, Inc., priority 1998, dated 2000).
≈ marks a conversion by molar mass, not a printed value.

These molecules were tested on T. mentagrophytes (TIMM1189) (assay: Antifungal Activity Test (Measurement of Minimum Inhibitory Concentration)). Conditions: Trichophyton mentagrophytes, 168 h, Sabouraud dextrose broth, 27° C., 1 week, visual determination, read-out: MIC (minimum concentration at which growth was completely inhibited).
Assay type: cell-based
Description: Antifungal activities of compounds according to the present invention against Trichophyton sp. were determined. Described specifically, T. mentagrophytes (TIMM1189) was cultured at 27° C. for 2 weeks on Sabouraud dextrose agar slants in advance, whereby it was allowed to form sufficient conidia. The conidia were washed in a sterilized physiological saline, which contained Tween 80 at a concentration of 0.05 wt./vol. %, by rubbing the conidia with a platinum loop, whereby the conidia were suspended. The suspension was filtered through a double-layer gauze so that only the conidia were collected in a form suspended in the physiological saline. The suspension was diluted to adjust the concentration of conidia to 1×10^5 conidia/ml, whereby a test fungus solution was obtained. Meanwhile, 4 mg of one of the test compounds were taken, to which 1 ml of dimethyl sulfoxide was added to prepare a stock. The stock was subjected to doubling dilution with ethanol to prepare diluted drug solutions. To each well of a 96-well microplate for tissue culture, 175 μl of Sabouraud dextrose broth, 5 μl of the corresponding drug solution and 20 μl of the test fungus solution were added. Subsequent to thorough mixing, the fungus strain was cultured at 27° C. for 1 week.

Structure (SMILES)	MIC
CN(C/C=C\C#CC(C)(C)C)Cc1ccccc1-c1ccccc1 [Compound 6, cis-N-(6,6-dimethyl-2-hepten-4-yn-1-yl)-N-methyl-2-phenylbenzylamine]	100 µg/mL (≈ 315 µM)
CN(CC=CC#CC(C)(C)C)C(c1ccccc1)c1ccccc1 [Compound 11, N-(6,6-dimethyl-2-hepten-4-yn-1-yl)-N-methyl(diphenylmethyl)amine]	100 µg/mL (≈ 315 µM)
CN(C/C=C/C#CC(C)(C)C)Cc1ccc(-c2ccccc2)cc1 [Compound 9, trans-N-(6,6-dimethyl-2-hepten-4-yn-1-yl)-N-methyl-4-phenylbenzylamine]	12.5 µg/mL (≈ 39.4 µM)
CN(Cc1ccc(C(C)(C)C)cc1)Cc1cccc(-c2ccccc2)c1 [Compound 2, 4-tert-butyl-N-methyl-N-(3-phenylbenzyl)benzylamine]	25 µg/mL (≈ 72.8 µM)
CN(Cc1ccc(-c2ccccc2)cc1)Cc1ccc(C(C)(C)C)cc1 [Compound 3, 4-tert-butyl-N-methyl-N-(4-phenylbenzyl)benzylamine]	12.5 µg/mL (≈ 36.4 µM)
CN(Cc1ccc(C(C)(C)C)cc1)C(c1ccccc1)c1ccccc1 [Compound 4, 4-tert-butyl-N-diphenylmethyl-N-methylbenzylamine]	100 µg/mL (≈ 291 µM)
CN(C/C=C/C#CC(C)(C)C)Cc1ccccc1-c1ccccc1 [Compound 5, trans-N-(6,6-dimethyl-2-hepten-4-yn-1-yl)-N-methyl-2-phenylbenzylamine]	12.5 µg/mL (≈ 39.4 µM)
CN(C/C=C\C#CC(C)(C)C)Cc1cccc(-c2ccccc2)c1 [Compound 8, cis-N-(6,6-dimethyl-2-hepten-4-yn-1-yl)-N-methyl-3-phenylbenzylamine]	12.5 µg/mL (≈ 39.4 µM)
CN(C/C=C/C#CC(C)(C)C)Cc1cccc(-c2ccccc2)c1 [Compound 7, trans-N-(6,6-dimethyl-2-hepten-4-yn-1-yl)-N-methyl-3-phenylbenzylamine]	12.5 µg/mL (≈ 39.4 µM)
CN(Cc1ccc(C(C)(C)C)cc1)Cc1ccccc1-c1ccccc1 [Compound 1, 4-tert-butyl-N-methyl-N-(2-phenylbenzyl)benzylamine]	12.5 µg/mL (≈ 36.4 µM)
